Laboratory results reported in publication PMC8445441, “Elucidating the mechanism by which synthetic helper peptides sensitize Pseudomonas aeruginosa to multiple antibiotics” (PLoS Pathogens, 2021).
Like-named read-outs stand apart in the source and are kept apart here. Non-standard residues stand in square brackets, D forms with d. Residues, ends and D or L forms follow the SMILES beside them. No end group written: not given here. *: point of attachment. βNA = c1ccc2cc(N*)ccc2c1

Assays:
P. aeruginosa PAO1 = experiment: microbe, parasite or virus in culture; conditions: for MICa: the MIC of antibiotics: antibiotic alone
Procedure: (§1) The MIC tests were performed in triplicate using broth microdilution in accordance with Clinical and Laboratory Standards Institute (CLSI) recommendations (http://iacld.ir/DL/public/CLSI-2018-M100-S28.pdf). Briefly, drugs were two-fold diluted in MHB and mixed with an equal volume of bacterial suspensions containing approximately 1 × 10^6 CFU/mL in 96-well microliter plate. After 18 h incubation at 37 °C, the MIC values were defined as the lowest concentrations of antibiotics with no visible growth of bacteria. […] Otherwise, 1/4 MIC of the peptide was used in the combination. […] If needed, membrane compounds PG, PE, PC, CL or LPS, or membrane stabilizers MgCl2 or CaCl2, or efflux pumps inhibitor PAβN were added to the broth medium to clarify the effect of other substances on the synergy between peptide and antibiotics. All the tests were performed in triplicate.
The fractional inhibitory concentration (FIC) indices were calculated using the previously described formula FICI = FICa + FICb = MICac/MICa + MICbc/MICb. The FICI was interpreted according to EUCAST [65] as follows: synergistic, FICI≤0.5; additive, 0.5<FICI≤1; indifferent, 1<FICI<2; antagonistic, FICI ≥2. For the FICI calculations, twice the highest concentration tested was used in the cases where the MIC was not reached.

[1] = test system: clinical P. aeruginosa isolates; experiment: microbe, parasite or virus in culture; conditions: Pseudomonas aeruginosa, 18 h, antibiotic alone
Procedure: The bacterial strains, primers and plasmids used in this study are listed in S5 Table. […] Bacteria were cultured in LB medium or cation-adjusted Muller-Hinton broth (CA-MHB) at 37 °C with agitation at 220 rpm. All the antibiotics and chemical compounds used in this study were purchased from Sigma-Aldrich.
as §1

[2] = S3 Table, PAO1, antibiotic + 2 μM D-11
[3] = S3 Table, PAO1, antibiotic + 4 μM D-11
[4] = PAO1, peptide + azithromycin, twice the highest concentration used where MIC not reached
[5] = peptide alone, PAO1, broth microdilution in MHB, 18 h, 37 °C, triplicate

CCO/N=C(\C(=O)N[C@@H]1C(=O)N2C(C(=O)[O-])=C(Sc3nc(-c4cc[n+](C)cc4)cs3)CS[C@H]12)c1nsc(N)n1 [Ceftaroline] was tested, and the FICI (P. aeruginosa PAO1; [2]) was 1.063, the FICI (P. aeruginosa PAO1; [3]) was 1.125 and the “MICac: the MIC for the antibiotic in the combination” value (shortened to “MICac: the MIC for the antibiotic”) (P. aeruginosa PAO1; S3 Table, PAO1, with 2 μM D-11) was 128/128 μM. The “MICac: the MIC for the antibiotic” value (P. aeruginosa PAO1; S3 Table, PAO1, with 4 μM D-11) was 128/128 μM and the “MICa: the MIC of antibiotics” value (P. aeruginosa PAO1; S3 Table, PAO1) was 128/128 μM.

CC1=C(C(=O)O)N2C(=O)[C@@H](NC(=O)[C@H](N)c3ccccc3)[C@H]2SC1 [Cephalexin] showed an FICI (P. aeruginosa PAO1; [2]) of 1.063 and an FICI (P. aeruginosa PAO1; [3]) of 1.125.

Work on CC[C@@H](C)[C@@H](NC(=O)[C@H](N)CCCNC(=N)N)C(=O)N[C@@H](C(=O)N[C@H](CCC(N)=O)C(=O)N[C@H](CCCNC(=N)N)C(=O)N[C@@H](C(=O)N[C@H](CCCNC(=N)N)C(=O)N[C@H](CCCNC(=N)N)C(=O)N[C@H](Cc1c[nH]c2ccccc12)C(=O)N[C@H](CC(C)C)C(=O)N[C@H](CCCNC(=N)N)C(N)=O)[C@H](C)CC)C(C)C [D-11-k(r)] (H-[dR][dI][dV][dQ][dR][dI][dR][dR][dW][dL][dR]-NH2) yielded an FICI (P. aeruginosa PAO1; PAO1, peptide + Azithromycin, higher peptide concentration line) of 0.156, an FICI (P. aeruginosa PAO1; PAO1, peptide + Azithromycin, lower peptide concentration line) of 0.188 and an FICI (P. aeruginosa PAO1; PAO1, peptide + Clarithromycin, higher peptide concentration line) of 0.156. For the same molecule, the FICI (P. aeruginosa PAO1; PAO1, peptide + Clarithromycin, lower peptide concentration line) was 0.125, the FICI (P. aeruginosa PAO1; PAO1, peptide + Erythromycin, higher peptide concentration line) was 0.188 and the FICI (P. aeruginosa PAO1; PAO1, peptide + Erythromycin, lower peptide concentration line) was 0.188. The FICI (P. aeruginosa PAO1; PAO1, peptide + Spiramycin, higher peptide concentration line) was 1.125, the FICI (P. aeruginosa PAO1; PAO1, peptide + Spiramycin, lower peptide concentration line) was 1.063 and the FICI (P. aeruginosa PAO1; PAO1, peptide + Telithromycin, higher peptide concentration line) was 0.188. The FICI (P. aeruginosa PAO1; PAO1, peptide + Telithromycin, lower peptide concentration line) was 0.188, the FICI (P. aeruginosa PAO1; [4]) was 0.156 and the “MICb: the MIC of the peptide” value (P. aeruginosa PAO1; S1 Table, peptide alone, PAO1) was 64 µM.

CC[C@@H](C)[C@@H](NC(=O)[C@@H](CC(C)C)NC(=O)[C@@H](CCCNC(=N)N)NC(=O)[C@@H](Cc1c[nH]c2ccccc12)NC(=O)[C@H](N)CC(C)C)C(=O)N[C@H](CCCNC(=N)N)C(=O)N[C@H](CCCNC(=N)N)C(=O)N[C@H](Cc1ccccc1)C(=O)N[C@H](CC(C)C)C(=O)N[C@H](CCCNC(=N)N)C(=O)N[C@H](CCCNC(=N)N)C(N)=O [D-RW-BP100R] (H-[dL][dW][dR][dL][dI][dR][dR][dF][dL][dR][dR]-NH2) was tested, and the FICI (P. aeruginosa PAO1; [4]) was 1.250 and the “MICb: the MIC of the peptide” value (P. aeruginosa PAO1; [5]) was 4 µM.

For CC[C@@H](C)[C@@H](NC(=O)[C@@H](CCCNC(=N)N)NC(=O)[C@@H](CCCNC(=N)N)NC(=O)[C@@H](Cc1ccccc1)NC(=O)[C@@H](CC(C)C)NC(=O)[C@@H](CCCNC(=N)N)NC(=O)[C@H](N)CCCNC(=N)N)C(=O)N[C@H](CC(C)C)C(=O)N[C@H](CCCNC(=N)N)C(=O)N[C@H](Cc1c[nH]c2ccccc12)C(=O)N[C@H](CC(C)C)C(N)=O [D-RW-BP100] (H-[dR][dR][dL][dF][dR][dR][dI][dL][dR][dW][dL]-NH2), the FICI (P. aeruginosa PAO1; [4]) was 1.250 and the “MICb: the MIC of the peptide” value (P. aeruginosa PAO1; [5]) was 8 µM.

Work on CC[C@H](C)[C@H](NC(=O)[C@H](CCCCN)NC(=O)[C@H](CCC(=O)O)NC(=O)[C@H](CCCCN)NC(=O)[C@H](CO)NC(=O)[C@H](CCCCN)NC(=O)[C@H](CCCNC(=N)N)NC(=O)[C@H](Cc1ccccc1)NC(=O)[C@H](Cc1ccccc1)NC(=O)[C@H](CC(=O)O)NC(=O)CNC(=O)[C@H](CC(C)C)NC(=O)[C@@H](N)CC(C)C)C(=O)NCC(=O)N[C@@H](CCCCN)C(=O)N[C@@H](CCC(=O)O)C(=O)N[C@@H](Cc1ccccc1)C(=O)N[C@@H](CCCCN)C(=O)N[C@@H](CCCNC(=N)N)C(=O)N[C@H](C(=O)N[C@H](C(=O)N[C@@H](CCC(N)=O)C(=O)N[C@@H](CCCNC(=N)N)C(=O)N[C@H](C(=O)N[C@@H](CCCCN)C(=O)N[C@@H](CC(=O)O)C(=O)N[C@@H](Cc1ccccc1)C(=O)N[C@@H](CC(C)C)C(=O)N[C@@H](CCCNC(=N)N)C(=O)N[C@@H](CC(N)=O)C(=O)N[C@@H](CC(C)C)C(=O)N[C@H](C(=O)N1CCC[C@H]1C(=O)N[C@@H](CCCNC(=N)N)C(=O)N[C@H](C(=O)N[C@@H](CCC(=O)O)C(=O)N[C@@H](CO)C(=O)O)[C@@H](C)O)C(C)C)[C@@H](C)CC)C(C)C)[C@@H](C)CC [LL-37] yielded an FICI (P. aeruginosa PAO1; [4]) of 0.75.

Cc1ncc([N+](=O)[O-])n1CCO [Metronidazole] gave an FICI (P. aeruginosa PAO1; [2]) of 1.063 and an FICI (P. aeruginosa PAO1; [3]) of 1.125.

With Cc1onc(-c2ccccc2)c1C(=O)N[C@@H]1C(=O)N2[C@@H]1SC(C)(C)[C@@H]2C(=O)O [Oxacillin] the FICI (P. aeruginosa PAO1; [2]) was 1.063 and the FICI (P. aeruginosa PAO1; [3]) was 1.125.

For NC(N)=NCCC[C@H](NC(=O)[C@@H](N)Cc1ccccc1)C(=O)Nc1ccc2ccccc2c1 [PAβN] (H-Phe-Arg-βNA), the “reduction of the MIC of azithromycin by PAβN” value (P. aeruginosa PAO1; PAO1, in the absence of D-11) was 64 fold and the “reduction of the MIC of azithromycin by PAβN” value (P. aeruginosa PAO1; PAO1, in the presence of D-11, higher concentration of PAβN) was “two”.

For N=C(N)c1ccc(OCCCCCOc2ccc(C(=N)N)cc2)cc1 [Pentamidine], the FICI (P. aeruginosa PAO1; [2]) was 1.063, the FICI (P. aeruginosa PAO1; [3]) was 1.125 and the “MICac: the MIC for the antibiotic” value (P. aeruginosa PAO1; S3 Table, PAO1, with 2 μM D-11) was 128/128 μM. For the same molecule, the “MICac: the MIC for the antibiotic” value (P. aeruginosa PAO1; S3 Table, PAO1, with 4 μM D-11) was 128/128 μM and the “MICa: the MIC of antibiotics” value (P. aeruginosa PAO1; S3 Table, PAO1) was 128/128 μM.

With CC[C@@H](C)[C@@H](NC(=O)[C@@H](CCCCN)NC(=O)[C@@H](CCCCN)NC(=O)[C@@H](Cc1c[nH]c2ccccc12)NC(=O)[C@@H](CC(C)C)NC(=O)[C@H](N)CCCNC(=N)N)C(=O)N[C@H](CCCNC(=N)N)C(=O)N[C@H](CCC(N)=O)C(=O)N[C@@H](C(=O)N[C@@H](C(=O)N[C@H](CCCNC(=N)N)C(=O)N[C@H](CCCCN)C(N)=O)[C@H](C)CC)C(C)C [Peptide D-11R] (H-[dR][dL][dW][dK][dK][dI][dR][dQ][dV][dI][dR][dK]-NH2) the “MICb: the MIC of the peptide” value (P. aeruginosa PAO1; PAO1, 18 h) was 32 µM.

For CN(C)[C@@H]1C(O)=C(C(N)=O)C(=O)[C@@]2(O)C(O)=C3C(=O)c4c(O)cccc4[C@@](C)(O)[C@H]3C[C@@H]12 [Tetracycline], the MIC ([1]; read-out: Antibiotic sensibility (MIC) of clinical P. aeruginosa isolate AUMC-Pa-2, strain AUMC-Pa-2) was 64 µM, the MIC ([1]; read-out: Antibiotic sensibility (MIC) of clinical P. aeruginosa isolate AUMC-Pa-3, strain AUMC-Pa-3) was 64 µM and the MIC ([1]; read-out: Antibiotic sensibility (MIC) of clinical P. aeruginosa isolate AUMC-Pa-5, strain AUMC-Pa-5) was 64 µM. The MIC ([1]; read-out: Antibiotic sensibility (MIC) of clinical P. aeruginosa isolate AUMC-Pa-6, strain AUMC-Pa-6) was 64 µM, the MIC ([1]; read-out: Antibiotic sensibility (MIC) of clinical P. aeruginosa isolate HM-214, strain HM-214) was 64 µM and the MIC ([1]; read-out: Antibiotic sensibility (MIC) of clinical P. aeruginosa isolate NR-31040, strain NR-31040) was 64 µM. For the same molecule, the MIC ([1]; read-out: Antibiotic sensibility (MIC) of clinical P. aeruginosa isolate NR-31041, strain NR-31041) was 64 µM.

For GIGKHVGKALKGLKGLLKGLGEC [ADP-1], the “MICb: the MIC of the peptide” value (P. aeruginosa PAO1; [5]) was 16 µM.
